According to patent US20260335468A1, “MOLECULAR RADIOAFTERGLOW PROBES FOR CANCER RADIODYNAMIC THERANOSTICS” (NANYANG TECHNOLOGICAL UNIVERSITY, priority 2023, published 2026):

System: subcutaneous U87 tumour
Assay: RDT of subcutaneous U87 tumour-bearing mice with IDPASu
Format: in vivo, mouse (BALB/c nude), human U87
Conditions: intratumoral, X-ray total 0.3 Gy in three fractions
Experimental: To establish a subcutaneous glioblastoma mouse model, BALB/c nude mice (six weeks old, female) were anaesthetized with isoflurane (2.0%) and subcutaneously injected with human U87 or U87-Luc (2×10^6 per mouse) suspended in PBS (0.01 M, pH 7.4) on the left flank or bilateral flank of each mouse. The tumour size was calculated according to the formula V=½ab^2, where a and b are the longest and shortest diameter of the tumour, respectively. After tumour sizes reached ~70 mm^3, the mice were used for imaging and therapy. […] At 15 min post-injection, bioluminescence signals were recorded using an IVIS imaging system with an open filter and automatic acquisition time. […]
For subcutaneous tumour therapy, to study the X-ray dynamic activity of IDPASu, U87-tumour-bearing mice were randomly divided into four groups (PBS, PBS+X-ray, IDPASu and IDPASu+X-ray), which includes five mice per group. […] The tumour volume and body weight of mice were monitored every two days. […] The brain tumour size was monitored using bioluminescence signals of luciferin from the tumour site every three days. […]

With `COC(=C1C2CC3CC(C2)CC1C3)c1cc(O)c(I)cc1/C=C/C1=CC(=C(C#N)C#N)c2ccccc2S1` [IDPASu] the body weight loss was “no loss in body weight” and the tumour growth was “completely inhibited the tumour growth”.
